From US9341616B2, “Sweet taste receptor chimeric proteins and use thereof” (AJINOMOTO CO., INC., priority 2014, dated 2016)
Residues, ends and D or L forms follow the SMILES beside them.

Experiments:
hT1R2/hT1R3 = biological target: T1, hT1R2/hT1R3 (Homo sapiens, UniProt Q7RTX0+Q8TE23, C757R); experiment: Intracellular calcium assay (ΔF/F, S/N ratio) in HEK293E cells expressing hT1R2 and hT1R3 with Gα15-trans48LD; format: cell-based;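 note: fluorescence read over 120 s after adding sweet stimulant across several concentrations, S/N taken as highest over lowest ΔF/F, higher meaning more sensitive detection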
T1 construct: expressed in transfected cells; host or cells: HEK293E
T1 sequence (Q8TE23 20-839): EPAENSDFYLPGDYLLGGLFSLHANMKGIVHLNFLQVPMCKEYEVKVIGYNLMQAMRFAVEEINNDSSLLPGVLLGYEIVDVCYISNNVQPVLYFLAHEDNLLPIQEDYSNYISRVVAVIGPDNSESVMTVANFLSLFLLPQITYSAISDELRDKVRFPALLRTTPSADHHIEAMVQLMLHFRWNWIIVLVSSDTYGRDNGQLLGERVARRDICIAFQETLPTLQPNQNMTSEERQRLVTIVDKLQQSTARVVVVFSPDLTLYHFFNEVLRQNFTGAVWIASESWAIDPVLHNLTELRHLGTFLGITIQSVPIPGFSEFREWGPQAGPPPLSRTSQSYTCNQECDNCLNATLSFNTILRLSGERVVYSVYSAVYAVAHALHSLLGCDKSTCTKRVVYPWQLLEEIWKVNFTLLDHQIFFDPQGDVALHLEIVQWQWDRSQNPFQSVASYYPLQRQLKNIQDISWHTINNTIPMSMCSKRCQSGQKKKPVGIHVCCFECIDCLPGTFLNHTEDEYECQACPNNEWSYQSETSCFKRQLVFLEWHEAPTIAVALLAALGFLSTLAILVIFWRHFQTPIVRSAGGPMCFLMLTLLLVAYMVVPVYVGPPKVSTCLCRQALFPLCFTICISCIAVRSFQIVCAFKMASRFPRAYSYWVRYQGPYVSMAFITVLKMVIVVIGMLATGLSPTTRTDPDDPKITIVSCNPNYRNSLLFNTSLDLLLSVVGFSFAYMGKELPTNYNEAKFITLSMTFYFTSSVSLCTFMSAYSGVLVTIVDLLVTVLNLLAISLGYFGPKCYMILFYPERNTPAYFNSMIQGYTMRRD
T1 sequence (Q7RTX0 21-852 C757R): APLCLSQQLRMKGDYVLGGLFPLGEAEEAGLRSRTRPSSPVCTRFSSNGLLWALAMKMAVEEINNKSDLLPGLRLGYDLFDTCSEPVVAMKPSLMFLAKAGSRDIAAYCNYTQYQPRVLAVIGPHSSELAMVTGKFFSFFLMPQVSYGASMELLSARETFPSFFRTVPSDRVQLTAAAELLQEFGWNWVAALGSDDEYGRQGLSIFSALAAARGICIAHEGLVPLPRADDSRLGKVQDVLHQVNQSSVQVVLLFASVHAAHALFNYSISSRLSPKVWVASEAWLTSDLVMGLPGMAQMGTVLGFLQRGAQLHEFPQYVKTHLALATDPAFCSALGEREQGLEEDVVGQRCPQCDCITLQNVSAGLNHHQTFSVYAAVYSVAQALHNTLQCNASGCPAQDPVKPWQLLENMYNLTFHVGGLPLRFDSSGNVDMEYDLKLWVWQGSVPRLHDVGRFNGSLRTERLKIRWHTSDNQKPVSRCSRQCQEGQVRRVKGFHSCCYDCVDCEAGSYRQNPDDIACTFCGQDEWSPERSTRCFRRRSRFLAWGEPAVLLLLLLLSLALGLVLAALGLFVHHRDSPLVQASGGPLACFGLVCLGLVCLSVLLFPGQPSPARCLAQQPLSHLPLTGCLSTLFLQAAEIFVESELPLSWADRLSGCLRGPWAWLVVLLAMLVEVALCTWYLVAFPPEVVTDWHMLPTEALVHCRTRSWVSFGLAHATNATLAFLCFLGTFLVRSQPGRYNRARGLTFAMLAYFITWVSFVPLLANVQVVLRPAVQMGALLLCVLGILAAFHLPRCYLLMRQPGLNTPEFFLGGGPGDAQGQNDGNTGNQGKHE
Protocol: The HEK293E cells maintained by using the DMEM/Ham's F-12 medium (Nakarai Tesque) containing 10% fetal bovine serum ([sequence]) and 1% Pen Strep (GIBCO) were washed with D-PBS(−) (Nakarai Tesque), and collected from the flask by using 0.25% Trypsin EDTA (GIBCO). The cells were centrifuged (1,200 rpm, 3 minutes), and after the supernatant was removed, suspended in 5% FBS DMEM/Ham's F-12 at a density of 0.75×10^7 cell/ml. This suspension (10 ml) was put into a 150 cm^3 flask (IWAKI), and culture was performed overnight (37° C., 5% CO2).
After the gene transfer, the cells were washed with D-PBS(−), then removed from the flask by using 0.25% Trypsin EDTA (GIBCO), and collected. […] This cell suspension was put into wells of D-Lysine coat 96-well plate (BD bioscience) in such a volume that the cell count is 7.0×10^4 cells/well, and the cells were cultured overnight.
After the culture, all the medium of the 96 wells were discarded. […] After the staining, 50 μl of a solution of stimulant (sweet taste substance) prepared with the assay buffer was added to each well, and the fluorescence value was measured for 120 seconds after the stimulation by using FDSSμEELL (Hamamatsu Photonics). […] The measurement and analysis of the fluorescence value was performed by using the software attached to FDSSμEELL (FDSS7000EX), and ΔF/F value was calculated in accordance with the following equation, and used for the evaluation. ΔF/F=(Maximum fluorescence value after stimulation−Minimum fluorescence value after stimulation)/(Fluorescence value before stimulation)
Furthermore, by using the ΔF/F values obtained when each sweet taste substance was added, the S/N ratio was calculated. Specifically, the S/N value was calculated by using the minimum value of ΔF/F obtained when each substance was added at various concentrations as noise (N) value, and the similarly obtained maximum value of ΔF/F as the signal (S) value, and used as an index for sensitivity of the measurement of the activity of each receptor.

hT1R2/mT1R3 = biological target: T2, hT1R2/mT1R3 (UniProt Q8TE23+Q925D8); experiment: Intracellular calcium assay (ΔF/F, S/N ratio) in HEK293E cells expressing hT1R2 and mT1R3 with Gα15-trans48LD; format: cell-based, human/mouse
T2 construct: expressed in transfected cells; host or cells: HEK293E
T2 sequence (Q8TE23 20-839): T1 sequence (Q8TE23 20-839)
T2 sequence (Q925D8 21-858): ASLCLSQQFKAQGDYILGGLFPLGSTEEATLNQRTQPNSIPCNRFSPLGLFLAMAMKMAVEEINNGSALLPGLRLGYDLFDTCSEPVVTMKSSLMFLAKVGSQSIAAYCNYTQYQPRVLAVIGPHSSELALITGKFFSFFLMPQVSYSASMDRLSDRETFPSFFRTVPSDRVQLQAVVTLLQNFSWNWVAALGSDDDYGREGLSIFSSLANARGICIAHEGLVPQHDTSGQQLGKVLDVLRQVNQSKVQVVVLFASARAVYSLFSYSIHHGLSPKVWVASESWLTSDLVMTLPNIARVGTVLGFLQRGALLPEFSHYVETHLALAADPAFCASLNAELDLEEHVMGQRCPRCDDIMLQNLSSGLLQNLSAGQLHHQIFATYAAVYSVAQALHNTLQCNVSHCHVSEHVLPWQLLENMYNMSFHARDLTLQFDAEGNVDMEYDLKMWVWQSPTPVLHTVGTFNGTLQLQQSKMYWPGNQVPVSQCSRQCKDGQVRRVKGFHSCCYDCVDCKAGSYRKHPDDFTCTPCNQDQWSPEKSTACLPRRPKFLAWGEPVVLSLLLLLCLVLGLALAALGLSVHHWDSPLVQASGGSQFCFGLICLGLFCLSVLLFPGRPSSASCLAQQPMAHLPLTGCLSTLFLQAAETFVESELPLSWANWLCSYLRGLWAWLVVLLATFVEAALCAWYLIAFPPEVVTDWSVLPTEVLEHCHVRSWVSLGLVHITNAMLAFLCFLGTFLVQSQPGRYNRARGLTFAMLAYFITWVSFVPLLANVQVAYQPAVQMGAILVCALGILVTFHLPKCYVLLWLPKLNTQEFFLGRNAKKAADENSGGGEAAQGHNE
Protocol: The HEK293E cells maintained by using the DMEM/Ham's F-12 medium (Nakarai Tesque) containing 10% fetal bovine serum ([sequence]) and 1% Pen Strep (GIBCO) were washed with D-PBS(−) (Nakarai Tesque), and collected from the flask by using 0.25% Trypsin EDTA (GIBCO). The cells were centrifuged (1,200 rpm, 3 minutes), and after the supernatant was removed, suspended in 5% FBS DMEM/Ham's F-12 at a density of 0.75×10^7 cell/ml. This suspension (10 ml) was put into a 150 cm^3 flask (IWAKI), and culture was performed overnight (37° C., 5% CO2). On the next day, the medium was exchanged with Opti-MEM (30 ml, Invitrogen, Life Technologies), a sweet taste receptor gene mixture (Gα15-trans48LD gene, various kinds of T1R2 chimeric genes, and various kinds of T1R3 chimeric genes, 63.8 μg in total) prepared by using Opti-MEM and Lipofectamin 2000 (Invitrogen, Life Technologies) was slowly added to the cell suspension, and incubation was performed (37° C., 5% CO2) for 6 hours to attain gene transfer.
After the gene transfer, the cells were washed with D-PBS(−), then removed from the flask by using 0.25% Trypsin EDTA (GIBCO), and collected. After the cell number was counted, the cells were suspended in the 5% FBS DMEM medium (2.78 mM glucose, GIBCO) at a density of 0.5×10^6 cell/ml. This cell suspension was put into wells of D-Lysine coat 96-well plate (BD bioscience) in such a volume that the cell count is 7.0×10^4 cells/well, and the cells were cultured overnight.
After the culture, all the medium of the 96 wells were discarded. 200 μl of the staining solution for measurement of intracellular calcium ion′ Calcium Assay Kit Express (Molecular Device), diluted 80 times with an assay buffer (20 mM HEPES, 146 mM NaCl, 1 mM MgSO4, 1.39 mM glucose, 1 mM CaC12, 2.5 mM Probenecid, 0.05% bovine serum albumin) was added to each well, and the plate was left standing at 37° C. for 30 minutes and at room temperature for 45 minutes to perform staining. After the staining, 50 μl of a solution of stimulant (sweet taste substance) prepared with the assay buffer was added to each well, and the fluorescence value was measured for 120 seconds after the stimulation by using FDSSμEELL (Hamamatsu Photonics). By measuring the fluorescence value (Ex. 480 nm, Em. 540 nm) before and after the stimulation, the change of the intracellular free calcium ion concentration caused by addition of the stimulant via a sweet taste receptor was quantitatively investigated. The measurement and analysis of the fluorescence value was performed by using the software attached to FDSSμEELL (FDSS7000EX), and ΔF/F value was calculated in accordance with the following equation, and used for the evaluation. ΔF/F=(Maximum fluorescence value after stimulation−Minimum fluorescence value after stimulation)/(Fluorescence value before stimulation)
Furthermore, by using the ΔF/F values obtained when each sweet taste substance was added, the S/N ratio was calculated. Specifically, the S/N value was calculated by using the minimum value of ΔF/F obtained when each substance was added at various concentrations as noise (N) value, and the similarly obtained maximum value of ΔF/F as the signal (S) value, and used as an index for sensitivity of the measurement of the activity of each receptor. That is, a higher S/N value means a higher sensitivity for detection of an interaction of a sweet taste receptor and a test substance, which makes it easier to detect stimulation with a sweet taste substance or sweet taste-regulating substance of a lower concentration.

[1] = Table 3, genes hT2/hT3 (hT1R2, hT1R3), max ΔF/F over min ΔF/F across concentrations
[2] = Table 4, genes hT2/hT3 (hT1R2, hT1R3)
[3] = Table 5, genes hT2/hT3 (hT1R2, hT1R3)
[4] = Table 6, genes hT2/hT3 (hT1R2, hT1Rm3)
[5] = Table 3, genes hT2/mT3 (hT1R2, mT1R3)
[6] = Table 4, genes hT2/mT3 (hT1R2, mT1R3)

| Structure (SMILES) | S/N (hT1R2/hT1R3; [1]) | S/N (hT1R2/hT1R3; [2]) | S/N (hT1R2/hT1R3; [3]) | S/N (hT1R2/hT1R3; [4]) | S/N (hT1R2/mT1R3; [5]) | S/N (hT1R2/mT1R3; [6]) |
| --- | --- | --- | --- | --- | --- | --- |
| COC(=O)[C@H](Cc1ccccc1)NC(=O)[C@@H](N)CC(=O)O [Aspartame, aspartame] (HELM PEPTIDE1{D.F.[CO[*:1]]}$$$$V2.0) | 1.6 | 1.6 | 1.6 | 1.6 | 2.3 | 2.3 |
| OC[C@H]1O[C@H](O[C@]2(CCl)O[C@H](CCl)[C@@H](O)[C@@H]2O)[C@H](O)[C@@H](O)[C@H]1Cl [Sucralose, sucralose] | 3.3 | 3.3 | 3.3 | 3.3 | 4.0 | 4.0 |
| O=C1NS(=O)(=O)c2ccccc21.[Na] [Saccharin Na, sodium saccharin] | 2.5 | 2.5 | 2.5 | 2.5 | 2.8 | 2.8 |
| COC(=O)[C@H](Cc1ccccc1)NC(=O)[C@H](CC(=O)O)NCCCc1ccc(OC)c(O)c1 [Advantame, advantame] | 3.2 | 3.2 | 3.2 | 3.2 | 4.6 | 4.6 |
| C[C@H](NC(=Nc1ccc(C#N)cc1)NCC(=O)O)c1ccccc1 [SC-45647, [3-[(S)-1-phenylethyl]-2-(4-cyanophenyl)guanidino]acetic acid] | 3.0 | 3.0 | 3.0 | 3.0 | 3.9 | 3.9 |
| OC[C@H]1O[C@@](CO)(O[C@H]2O[C@H](CO)[C@@H](O)[C@H](O)[C@H]2O)[C@@H](O)[C@@H]1O [Sucrose, sucrose] | 1.9 | 1.9 | 1.9 | 1.9 | 2.4 | 2.4 |
| CC1=CC(=O)NS(=O)(=O)O1 [Acesulfame K, acesulfame potassium] | 1.9 | 1.9 | 1.9 | 1.9 | 2.4 | 2.4 |
| COC(=O)[C@H](Cc1ccccc1)NC(=O)[C@H](CC(=O)O)NCCC(C)(C)C [Neotame, neotame] | 2.9 | 2.9 | 2.9 | 2.9 | 3.4 | 3.4 |
| COc1ccc(CCC(=O)c2c(O)cc(O[C@@H]3O[C@H](CO)[C@@H](O)[C@H](O)[C@H]3O[C@@H]3O[C@@H](C)[C@H](O)[C@@H](O)[C@H]3O)cc2O)cc1O [NHDC, neohesperidin dihydrochalcone] |  |  | 2.0 | 2.0 |  |  |
